From ChEMBL document CHEMBL6109073, “Discovery of β-amino acid substituted naphthalene sulfonamide derivatives as potent Kelch-like ECH-associated protein 1-nuclear factor erythroid 2-related factor 2 (Keap1-Nrf2) protein-protein interaction inhibitors for ulcerative colitis management” (Eur J Med Chem, 2025)

Biological target: Keap1/Nrf2 (Homo sapiens, UniProt Q14145)
Sequence (Q16236 whole entry): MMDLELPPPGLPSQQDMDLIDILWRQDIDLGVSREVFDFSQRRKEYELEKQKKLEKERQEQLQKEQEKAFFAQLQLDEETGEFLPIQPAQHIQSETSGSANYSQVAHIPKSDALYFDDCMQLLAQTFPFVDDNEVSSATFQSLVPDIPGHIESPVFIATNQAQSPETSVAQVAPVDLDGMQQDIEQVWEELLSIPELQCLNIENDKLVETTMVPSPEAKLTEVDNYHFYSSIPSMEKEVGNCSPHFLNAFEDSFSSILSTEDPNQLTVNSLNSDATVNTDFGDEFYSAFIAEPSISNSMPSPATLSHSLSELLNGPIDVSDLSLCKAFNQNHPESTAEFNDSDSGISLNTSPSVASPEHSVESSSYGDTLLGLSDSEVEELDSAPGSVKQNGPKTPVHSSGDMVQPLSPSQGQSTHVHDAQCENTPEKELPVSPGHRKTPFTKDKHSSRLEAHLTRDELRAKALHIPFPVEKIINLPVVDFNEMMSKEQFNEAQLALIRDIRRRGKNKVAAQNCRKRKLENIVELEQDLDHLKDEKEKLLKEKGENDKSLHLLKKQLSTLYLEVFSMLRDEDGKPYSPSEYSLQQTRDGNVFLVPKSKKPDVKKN
Sequence (Q14145 whole entry): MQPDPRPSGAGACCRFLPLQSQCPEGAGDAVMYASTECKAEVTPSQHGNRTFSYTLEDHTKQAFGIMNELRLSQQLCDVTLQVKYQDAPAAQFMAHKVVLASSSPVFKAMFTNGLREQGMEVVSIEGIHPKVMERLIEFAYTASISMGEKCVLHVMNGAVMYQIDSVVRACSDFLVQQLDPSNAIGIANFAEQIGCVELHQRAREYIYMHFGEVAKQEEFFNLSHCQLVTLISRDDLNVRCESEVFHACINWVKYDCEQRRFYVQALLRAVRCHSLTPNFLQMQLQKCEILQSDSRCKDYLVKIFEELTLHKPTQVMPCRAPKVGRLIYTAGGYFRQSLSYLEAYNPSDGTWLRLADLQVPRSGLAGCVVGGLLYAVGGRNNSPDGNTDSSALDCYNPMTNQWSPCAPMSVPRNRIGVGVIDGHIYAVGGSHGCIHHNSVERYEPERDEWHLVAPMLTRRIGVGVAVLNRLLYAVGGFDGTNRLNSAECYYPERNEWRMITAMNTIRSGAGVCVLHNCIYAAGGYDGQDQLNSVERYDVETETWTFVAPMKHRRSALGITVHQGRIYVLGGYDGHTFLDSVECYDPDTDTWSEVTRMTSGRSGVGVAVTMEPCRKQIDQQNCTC
Description: Inhibition of Keap1 kelch domain (322 to 609 residues) (unknown origin)/Nrf2 (unknown origin) protein-protein interaction incubated for 30 mins by fluorescence polarization assay

SMILES	IC50 [µM]
C[C@@H](CC(=O)O)Nc1ccc(N(CC(=O)O)S(=O)(=O)c2ccc(C(F)(F)F)cc2)c2ccccc12	16.5
Cc1cc(C)c(C)c(S(=O)(=O)N(CC(=O)O)c2ccc(N[C@@H](C)CC(=O)O)c3ccccc23)c1C	1.61
Cc1cc(C)c(S(=O)(=O)Nc2ccc(N[C@@H](C)CC(=O)O)c3ccccc23)c(C)c1	2.28
C[C@@H](CC(=O)O)Nc1ccc(N(CC(=O)O)S(=O)(=O)c2ccc(Cl)cc2)c2ccccc12	10.6
COc1ccc(S(=O)(=O)Nc2ccc(N[C@@H](CC(=O)O)c3ccccc3)c3ccccc23)cc1	> 50
C[C@@H](CC(=O)O)Nc1ccc(NS(=O)(=O)c2ccc(C(C)(C)C)cc2)c2ccccc12	> 50
COc1ccc(S(=O)(=O)N(CC(=O)O)c2ccc(N[C@@H](CC(=O)O)c3ccccc3)c3ccccc23)cc1	13.9
COc1ccc(S(=O)(=O)N(CC(=O)O)c2ccc(N[C@@H](C)CC(=O)O)c3ccccc23)cc1	8.21
COc1ccc(S(=O)(=O)Nc2ccc(N[C@@H](C)CC(=O)O)c3ccccc23)cc1	> 50
C[C@@H](CC(=O)O)Nc1ccc(NS(=O)(=O)c2ccc(C(F)(F)F)cc2)c2ccccc12	47.6
C[C@@H](CC(=O)O)Nc1ccc(N(CC(=O)O)S(=O)(=O)c2ccc(C(C)(C)C)cc2)c2ccccc12	10.1
C[C@@H](CC(=O)O)Nc1ccc(NS(=O)(=O)c2ccc(F)cc2)c2ccccc12	> 50
Cc1cc(C)c(C)c(S(=O)(=O)Nc2ccc(N[C@@H](C)CC(=O)O)c3ccccc23)c1C	6.64
Cc1ccc(S(=O)(=O)Nc2ccc(N[C@@H](C)CC(=O)O)c3ccccc23)cc1	44
CCOc1ccc(S(=O)(=O)Nc2ccc(N[C@@H](C)CC(=O)O)c3ccccc23)cc1	33.4
C[C@@H](CC(=O)O)Nc1ccc(NS(=O)(=O)c2ccc(Cl)cc2)c2ccccc12	> 50
C[C@@H](CC(=O)O)Nc1ccc(N(CC(=O)O)S(=O)(=O)c2ccc(F)cc2)c2ccccc12	23.7
Cc1ccc(S(=O)(=O)N(CC(=O)O)c2ccc(N[C@@H](C)CC(=O)O)c3ccccc23)cc1	7.14
CCOc1ccc(S(=O)(=O)N(CC(=O)O)c2ccc(N[C@@H](C)CC(=O)O)c3ccccc23)cc1	8.82
